Columns and labels:
human PHD2181-417 = human PHD2181-417 (Homo sapiens (Human), UniProt Q9GZT9); assay: PHD2 enzyme activity assay ([14C]-succinic acid production); type: biochemical; conditions: PHD2181-417 polypeptide, HIF-1α peptide 10 μM, [5-14C]-2-oxoglutaric acid, 30 min pre-incubation, tested 10 μM to 3 nM; for IC50: read-out: Enzyme pIC50 (converted);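 on all read-outs here: reaction ran 10 min with compound in Tris pH 7.5 buffer with catalase, DTT and ascorbate, labelled succinate freed of leftover 2-oxoglutarate by DNP precipitation, then beta counted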
Hep-3B cells = assay: Cellular assay: EPO secretion in Hep-3B cells; type: cell-based, human; design: EPO secretion, % of control compound: dose or concentration left out as unconfirmed; conditions: 24 h, EPO secretion as percentage of control compound 7-[(4-Chloro-phenyl)-(5-methyl-isoxazol-3-ylamino)-methyl]-quinolin-8-ol; for EPO secretion, % of control compound: Homo sapiens, Hep3B, read-out: Cellular % EPO Stimulation; for Cellular % EPO Stimulation: compound at 100 μM (10 μM or 100 μM)

human PHD2181-417, sequence (Q9GZT9 181-417): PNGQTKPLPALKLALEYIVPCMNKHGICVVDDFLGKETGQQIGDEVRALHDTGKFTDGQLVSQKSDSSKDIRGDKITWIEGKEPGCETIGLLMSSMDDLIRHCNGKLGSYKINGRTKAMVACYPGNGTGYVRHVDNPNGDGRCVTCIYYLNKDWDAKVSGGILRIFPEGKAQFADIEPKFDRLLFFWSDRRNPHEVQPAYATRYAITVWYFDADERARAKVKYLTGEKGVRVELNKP

SMILES	Enzyme pIC50 (human PHD2181-417)	EPO secretion, % of control compound (Hep-3B cells) [%]	IC50 (human PHD2181-417) [µM]	Cellular % EPO Stimulation (Hep-3B cells) [%]
O=C(O)c1cnn(-c2nc3cc(Cl)c(Cl)cc3[nH]2)c1 [Example 2, 1-(5,6-Dichloro-1H-benzoimidazol-2-yl)-1H-pyrazole-4-carboxylic Acid]	6.9	152		
O=C(O)c1cn(-c2nc3cc(Cl)c(Cl)cc3[nH]2)nc1C(F)(F)F [Example 20, 1-(5,6-dichloro-1H-benzoimidazol-2-yl)-3-trifluoromethyl-1H-pyrazole-4-carboxylic Acid]			> 100	18.81
Cc1nn(-c2nc3cc(Cl)c(Cl)cc3[nH]2)c(C)c1C(=O)O [Example 22, 1-(5,6-Dichloro-1H-benzoimidazol-2-yl)-3,5-dimethyl-1H-pyrazole-4-carboxylic Acid]			> 100	0.47
O=C(O)c1cnn(-c2nc3c(Cl)cccc3[nH]2)c1 [Example 27, 1-(4-Chloro-1H-benzoimidazol-2-yl)-1H-pyrazole-4-carboxylic Acid]	6.1	19.1		
O=C(O)c1cnn(-c2nc3cc(Cl)cc(C(F)(F)F)c3[nH]2)c1 [Example 28, 1-(5-Chloro-7-trifluoromethyl-1H-benzoimidazol-2-yl)-1H-pyrazole-4-carboxylic Acid]	6.4	16.6		
O=C(O)c1cnn(-c2nc3c(F)c(F)c(F)cc3[nH]2)c1 [Example 31, 1-(4,5,6-Trifluoro-1H-benzoimidazol-2-yl)-1H-pyrazole-4-carboxylic Acid]	7	18.2		
O=C(O)c1cnn(-c2nc3c(Br)c(F)c(F)cc3[nH]2)c1 [Example 32, 1-(4-Bromo-5,6-difluoro-1H-benzoimidazol-2-yl)-1H-pyrazole-4-carboxylic Acid]	6.7	33		
Cc1cc(Cl)cc2[nH]c(-n3cc(C(=O)O)cn3)nc12 [Example 33, 1-(6-Chloro-4-methyl-1H-benzoimidazol-2-yl)-1H-pyrazole-4-carboxylic Acid]	6	13.4		
O=C(O)c1cnn(-c2nc3c(Cl)cc(Cl)cc3[nH]2)c1 [Example 34, 1-(4,6-Dichloro-1H-benzoimidazol-2-yl)-1H-pyrazole-4-carboxylic Acid]	6.5	56.3		
O=C(O)c1cnn(-c2nc3c(Br)cc(C(F)(F)F)cc3[nH]2)c1 [Example 35, 1-(4-Bromo-6-trifluoromethyl-1H-benzoimidazol-2-yl)-1H-pyrazole-4-carboxylic Acid]	6.8	29.7		
O=C(O)c1cnn(-c2nc3cc(F)c(F)cc3[nH]2)c1 [Example 36, 1-(5,6-Difluoro-1H-benzoimidazol-2-yl)-1H-pyrazole-4-carboxylic Acid]	6.6	79.4		
O=C(O)c1cnn(-c2nc3c(Br)cc(Cl)cc3[nH]2)c1 [Example 37, 1-(4-Bromo-6-chloro-1H-benzoimidazol-2-yl)-1H-pyrazole-4-carboxylic Acid]	6.6	34		
CS(=O)(=O)c1ccc2nc(-n3cc(C(=O)O)cn3)[nH]c2c1 [Example 38, 1-(6-Methanesulfonyl-1H-benzoimidazol-2-yl)-1H-pyrazole-4-carboxylic Acid]	7.1	40.9		
N#Cc1cc2nc(-n3cc(C(=O)O)cn3)[nH]c2cc1Cl [Example 39, 1-(6-Chloro-5-cyano-1H-benzoimidazol-2-yl)-1H-pyrazole-4-carboxylic Acid]	7.4	29.9		
O=C(O)c1cnn(-c2nc3cc([N+](=O)[O-])c(Cl)cc3[nH]2)c1 [Example 40, 1-(6-Chloro-5-nitro-1H-benzoimidazol-2-yl)-1H-pyrazole-4-carboxylic Acid]	7.5	93.4		
Nc1cc2nc(-n3cc(C(=O)O)cn3)[nH]c2cc1Cl [Example 41, 1-(5-Amino-6-chloro-1H-benzoimidazol-2-yl)-1H-pyrazole-4-carboxylic Acid]	6.4	30		
O=C(O)c1cnn(-c2nc3cc(F)ccc3[nH]2)c1 [Example 42, 1-(5-Fluoro-1H-benzoimidazol-2-yl)-1H-pyrazole-4-carboxylic Acid]	6.3	33.8		

SMILES	Enzyme pIC50 (human PHD2181-417)	EPO secretion, % of control compound (Hep-3B cells) [%]	IC50 (human PHD2181-417) [µM]	Cellular % EPO Stimulation (Hep-3B cells) [%]
O=C(O)c1cnn(-c2nc3cc(N4CCCC4)c(Cl)cc3[nH]2)c1 [Example 43, 1-(6-Chloro-5-pyrrolidin-1-yl-1H-benzoimidazol-2-yl)-1H-pyrazole-4-carboxylic Acid]	6.7	178		
O=C(O)c1cnn(-c2nc3cc(N4CCCCC4)c(Cl)cc3[nH]2)c1 [Example 44, 1-(6-Chloro-5-piperidin-1-yl-1H-benzoimidazol-2-yl)-1H-pyrazole-4-carboxylic Acid]	6.7	139		
O=C(O)c1cnn(-c2nc3cc(N4CCOCC4)c(Cl)cc3[nH]2)c1 [Example 45, 1-(6-Chloro-5-morpholin-4-yl-1H-benzoimidazol-2-yl)-1H-pyrazole-4-carboxylic Acid]	6.6	30.9		
COc1cc2[nH]c(-n3cc(C(=O)O)cn3)nc2cc1Cl [Example 46, 1-(6-Chloro-5-methoxy-1H-benzoimidazol-2-yl)-1H-pyrazole-4-carboxylic Acid]	6.5	76		
O=C(O)c1ccc2[nH]c(-n3cc(C(=O)O)cn3)nc2c1 [Example 47, 2-(4-Carboxy-pyrazol-1-yl)-1H-benzoimidazole-5-carboxylic Acid]	6.6	11		
O=C(O)c1cnn(-c2nc3cc(Br)cc(F)c3[nH]2)c1 [Example 48, 1-(5-Bromo-7-fluoro-1H-benzoimidazol-2-yl)-1H-pyrazole-4-carboxylic Acid]	6.3	44		
Cc1cc(Br)cc2nc(-n3cc(C(=O)O)cn3)[nH]c12 [Example 49, 1-(5-Bromo-7-methyl-1H-benzoimidazol-2-yl)-1H-pyrazole-4-carboxylic Acid]	6.1	24		
O=C(O)c1cnn(-c2nc3cc(Oc4ccc(Cl)c(Cl)c4)c(C(F)(F)F)cc3[nH]2)c1 [Example 50, 1-[5-(3,4-Dichloro-phenoxy)-6-trifluoromethyl-1H-benzoimidazol-2-yl]-1H-pyrazole-4-carboxylic Acid]	7.4	18		
O=C(O)c1cnn(-c2nc3cc(Oc4ccc(Cl)cc4)c(Cl)cc3[nH]2)c1 [Example 51, 1-[6-Chloro-5-(4-chloro-phenoxy)-1H-benzoimidazol-2-yl]-1H-pyrazole-4-carboxylic Acid]	7.4	150		
O=C(O)c1cnn(-c2nc3cc(Oc4ccc(Cl)cc4)c(OC(F)(F)F)cc3[nH]2)c1 [Example 52, 1-[5-(4-Chloro-phenoxy)-6-trifluoromethoxy-1H-benzoimidazol-2-yl]-1H-pyrazole-4-carboxylic Acid]	7.4	21.6		
O=C(O)c1cnn(-c2nc3cc(Oc4ccccc4)c(OC(F)(F)F)cc3[nH]2)c1 [Example 53, 1-(5-Phenoxy-6-trifluoromethoxy-1H-benzoimidazol-2-yl)-1H-pyrazole-4-carboxylic Acid]	7.2	138		
O=C(O)c1cnn(-c2nc3cc(Oc4ccc(F)cc4)c(C(F)(F)F)cc3[nH]2)c1 [Example 54, 1-[5-(4-Fluoro-phenoxy)-6-trifluoromethyl-1H-benzoimidazol-2-yl]-1H-pyrazole-4-carboxylic Acid]	7.3	75.5		
N#Cc1ccccc1-c1ccc(CSc2cc3nc(-n4cc(C(=O)O)cn4)[nH]c3cc2Cl)cc1 [Example 172, 1-[6-Chloro-5-(2′-cyano-biphenyl-4-ylmethylsulfanyl)-1H-benzoimidazol-2-yl]-1H-pyrazole-4-carboxylic Acid]	7.5			
Cc1ccc(CS(=O)(=O)c2cc3nc(-n4cc(C(=O)O)cn4)[nH]c3cc2Cl)cc1 [Example 178, 1-(6-Chloro-5-p-tolylmethanesulfonyl-1H-benzoimidazol-2-yl)-1H-pyrazole-4-carboxylic Acid]	7.7			
O=C(O)c1cnn(-c2nc3cc(S(=O)(=O)Cc4ccc(C(F)(F)F)cc4)c(Cl)cc3[nH]2)c1 [Example 179, 1-[6-Chloro-5-(4-trifluoromethyl-phenylmethanesulfonyl)-1H-benzoimidazol-2-yl]-1H-pyrazole-4-carboxylic Acid]	7.7			
O=C(O)c1cnn(-c2nc3cc(S(=O)(=O)Cc4ccc(C(F)(F)F)cc4C(F)(F)F)c(Cl)cc3[nH]2)c1 [Example 180, 1-[5-(2,4-Bis-trifluoromethyl-phenylmethanesulfonyl)-6-chloro-1H-benzoimidazol-2-yl]-1H-pyrazole-4-carboxylic Acid]	7.6			
N#Cc1ccccc1-c1ccc(CS(=O)(=O)c2cc3nc(-n4cc(C(=O)O)cn4)[nH]c3cc2Cl)cc1 [Example 181, 1-[6-Chloro-5-(2′-cyano-biphenyl-4-ylmethanesulfonyl)-1H-benzoimidazol-2-yl]-1H-pyrazole-4-carboxylic Acid]	7.7			

Reference: patent US10851083B2, “Benzoimidazoles as prolyl hydroxylase inhibitors” (Janssen Pharmaceutica NV, priority 2008, dated 2020)
